Values after ≈ are worked out from the molar mass of the structure shown.
Assay: physchem
Conditions: aqueous buffer, kinetic from dmso stock
Experimental: General procedure for kinetic solubility measurements. A polypropylene tube was charged with PBS solution (490 μL). To the buffer was added a 10 mM stock solution of compound (10 μL). The tube was vortexed and equilibrated on an end-over-end rotator for 15 min at rt. Aliquots (400 μL) were filtered through 0.45 μm syringe filters and diluted to 5.0 mL with absolute MeOH. Concentrations were determined by UV/VIS analysis.
The test compounds were prepared at concentrations of 10 mM and added to the buffer at room temperature such that cosolvent concentration was fixed at 2%.

| SMILES | solubility kinetic at 15 min [µM] |
| --- | --- |
| COC(=O)Nc1nc2ccccc2[nH]1 [compound 10, carbendazim] | 140 ± 13 (≈ 26.8 µg/mL) |
| COC1=CC(=O)C[C@@H](C)[C@]12Oc1c(Cl)c(OC)cc(OC)c1C2=O [compound 11, griseofulvin] | 180 ± 13 (≈ 63.5 µg/mL) |
